Laboratory results: PMC12040169 (PLOS Biology, 2025)

Assay: in vitro
Conditions: human, hela cells, % viability

SMILES	viability at 28.5 h, 10 µM [%]
CCCCC(=O)N(C)c1c(C)nc2ccc(C(=O)Nc3ccc(C(N)=O)cc3)cn12 [CBK147066]	94.5
Cc1cc(C)nc(SCC(=O)Nc2ccc(S(=O)(=O)NC3CCCCC3)cc2)n1 [CBK268299]	86
CN(Cc1ccccc1)C(=O)c1c[nH]nc1C1CCCCN1Cc1ccccc1Cl (centres unmarked) [CBK285936]	88.1
COc1ccccc1C1CCCN1Cc1c(C)nc2ccccn12 (centres unmarked) [CBK281995]	91.9
CCOC(=O)c1cnc(SCc2cccc([N+](=O)[O-])c2)nc1N [CBK266449]	95
Cc1ccc(Nc2nc(N3CCOCC3)nc(N3CCOCC3)n2)cc1 [CBK287732]	118
COc1cc(NC(=O)NC(=O)C2CCN(C(C)=O)CC2)cc(OC)c1OC [CBK034831]	114
COc1ccc(-n2nnnc2SCc2ccc(Cl)cc2)cc1 [CBK101068]	60.7
CSCC[C@H](NC(=O)c1cccc2c1-c1ccccc1C2=O)C(=O)O [CBK286781]	95.5
O=C1c2ccccc2C(=O)N1c1ccccn1 [CBK113682]	99.5
CC1CCN(C(=O)C2CCCCC2C(=O)O)CC1 (centres unmarked) [CBK028392]	107
COc1ccc2[nH]cc(CC3CCNCC3)c2c1 [CBK012779]	104
N/C(=N/c1ccccn1)C(F)(F)F [CBK021049]	90.1
O=C(Cc1cccs1)N1CCC(c2nnc(-c3ccccc3)c(-c3ccccc3)n2)CC1 [CBK286283]	98.8
O=C(Cn1nc(N2CCSCC2)ccc1=O)Nc1ccccc1 [CBK307623]	97.2
CC(C)(C)c1[nH]c2ncccc2c1CN1CCCC(CO)C1 (centres unmarked) [CBK285342]	99.1
O=C(N1CCC(c2ccncc2)CC1)C1(c2ccccc2)CC1 [CBK285480]	102
COc1cc(OC)c2nc(C(F)(F)F)cc(Cl)c2c1 [CBK006518]	83.1
CC(NC(=O)C1CCN(CCCN(C)S(C)(=O)=O)CC1)c1cccc2ccccc12 (centres unmarked) [CBK148651]	104
Cn1ccnc1C1(O)CC2CCC(C1)N2C(=O)c1ccccc1F (centres unmarked) [CBK284085]	87.4
COc1cc(CNc2ccc(N3CCOCC3)cc2)ccc1OCc1ccc(Cl)cc1Cl [CBK074516]	93.1
CC1=CC[C@H]2COC(CN3CCOC3C(C)C)[C@@H]1C2 (some centres unmarked) [CBK019189]	122

SMILES	viability at 28.5 h, 10 µM [%]
CCOC(=O)c1c(C)oc2ccc(OCC(=O)c3ccc(Br)cc3)cc12 [CBK263841]	92.4
O=C1CC[C@@H](NCc2ccccn2)[C@H](c2cc(F)cc(F)c2)N1 [CBK282911]	98.8
C=CCNCc1cc2c(C)nn(-c3ccc(F)cc3)c2[nH]c1=O [CBK283117]	111
OCCN1CC2(CCN(Cc3ccc4ccccc4c3)CC2)c2ccccc21 [CBK131529]	92.6
FC(F)(F)c1[nH]c2ncccc2c1CN1CCN2CCCCC2C1 (centres unmarked) [CBK285355]	80.9
CS(=O)(=O)N(Cc1ccc(Cl)cc1)c1ccc(C(=O)Nc2ccccc2C(=O)O)cc1 [CBK264093]	105
O=C(O)C1CCCCC1C(=O)NCc1cccnc1 (centres unmarked) [CBK261695]	91.7
O=[N+]([O-])c1ccccc1NCCNS(=O)(=O)c1ccccc1 [CBK263552]	89
O=S(=O)(c1cnc(Cl)c(Br)c1)N1CCC2(CC1)OCCO2 [CBK044070]	97.5
COc1ccc(CN2CC(C(=O)O)C2)cc1Cn1cncn1 [CBK307284]	110
CCCS(=O)(=O)NC1CCN(c2nc(C(F)(F)F)nc3[nH]cnc23)CC1 [CBK304587]	105
O=C(CSCc1ccc(Cl)c(Cl)c1)Nc1ncccn1 [CBK269998]	89.7
C(=N\N=C(/c1ccccc1)C12CN3CN(CN(C3)C1)C2)/c1ccc2c(c1)OCO2 [CBK261816]	102
Cc1nn(-c2ccccc2)c2c1C(C(=O)c1ccc3c(c1)OCO3)CC(=O)N2 (centres unmarked) [CBK294436]	86.1
CC(C)OC(=O)c1ccc(NC(=O)c2csc3c2CCCC3)cc1 [CBK058649]	106
CCCNc1nc(Cl)nc(NCc2cccnc2)n1 [CBK261995]	89
CC(C)(CSc1nnc(Nc2ccccc2)s1)NS(=O)(=O)c1ccc(Cl)cc1 [CBK266388]	108
O=C(N/N=C/C1C=Nc2ccccc21)c1cc([N+](=O)[O-])cc([N+](=O)[O-])c1 (centres unmarked) [CBK261485]	89.8
COc1ccc(NC(=O)N[C@H]2C[C@H]3C(=O)N[C@H](Cc4ccccc4)C(=O)N3C2)cc1 [CBK289227]	84.7
CCCCC12CN3CCN(CC(C3)/C1=N\N=C1/C3CN4CCN(C3)CC1(CCCC)C4)C2 [CBK264981]	104
Cc1ccc(NC(=O)Cn2cnc3c(=O)n(C)c(=O)n(C)c32)c(O)c1 [CBK267002]	102
Cc1nn(Cc2ccccc2)c(C)c1C(=O)N(C)C [CBK015942]	104
